Where two headings read alike, the source gives them in different places. Marks after values point to notes of the source that are not given here.
Key:
[1] = molecular target: T1, beef intestine adenosine deaminase (ADA) (Bos taurus, UniProt P56658); settings: data taken from Balzarini, J. et al (1987c); cited from earlier work
T1 construct: Kinetic properties of beef intestine adenosine deaminase for 2,6-diaminopurine 2′,3′-dideoxynucleoside analogues; purchased Boehringer Mannheim, Mannheim, West Germany; host or cells: beef intestine (tissue-derived enzyme)
T1 sequence (P56658 1-363): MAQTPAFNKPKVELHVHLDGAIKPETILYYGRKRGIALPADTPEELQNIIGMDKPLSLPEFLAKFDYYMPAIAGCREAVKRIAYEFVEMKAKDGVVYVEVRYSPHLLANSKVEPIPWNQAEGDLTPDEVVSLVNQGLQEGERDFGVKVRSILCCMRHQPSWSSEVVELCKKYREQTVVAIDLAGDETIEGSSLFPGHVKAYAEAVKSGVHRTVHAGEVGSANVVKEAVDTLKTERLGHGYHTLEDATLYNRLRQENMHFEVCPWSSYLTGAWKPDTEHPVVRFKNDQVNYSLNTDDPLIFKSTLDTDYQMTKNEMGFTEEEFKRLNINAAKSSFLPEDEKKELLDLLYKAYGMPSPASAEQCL

HIV (HTLV-IIIB) [2] = experiment: HIV-induced cytopathogenicity in MT4 cells (viable cell count by trypan blue exclusion after 5 days); assay type: cell-based; settings: for EC50: Human immunodeficiency virus 1, IIIB; for HIV-induced cytopathogenicity in MT4 cells S.I.: selectivity index, ratio of 50% cytotoxic dose to 50% antivirally effective dose, 7200 min; for anti-HIV activity: HIV-induced cytopathogenicity in MT4 cells, result in words
Experimental: (§1) For the determination of the cytopathic effect of HIV in human T-lymphocyte MT4 cells, MT4 cells, subcultured one day before the start of the experiment, were adjusted at 5 x 10⁵ cells/ml and infected with HIV (HTLV-IIIB) at 100 CCID₅₀/ml. Then, 100 µl of the infected cell suspension was brought into wells of a microtiter tray containing 100 µl of various dilutions of the test compounds. After 5 days incubation at 37°C, the number of viable cells was recorded microscopically in a hematocytometer by trypan blue exclusion.
(§2) A series of novel 2,6-diaminopurine and guanine 2′,3′-dideoxynucleoside analogues in which the 2′,3′-dideoxyribose moiety is substituted by a 3′-fluoro group, or replaced by arabinose or 2′-deoxyxylose were evaluated for their effect on the transformation of C3H mouse embryo cells by Moloney murine sarcoma virus (MSV) (Table 1) and the cytopathogenicity induced by HIV in human T4 lymphocyte MT4 cells (Table 1, Fig. 2).

in vitro [3] = assay type: cell-based; settings: human, mt4 cells
Experimental: as §1
Its anti-HIV activity is also higher than that found for its corresponding 2,6-diaminopurine derivative FddDAPR.

[4] = tested on: Moloney murine sarcoma virus (MSV); experiment: MSV-induced C3H cell transformation; assay type: cell-based; settings: for EC50: Moloney murine sarcoma virus, C3H; for MSV-induced C3H cell transformation S.I.: selectivity index, ratio of 50% cytotoxic dose to 50% antivirally effective dose
Experimental: For transformation of C3H mouse embryo cells by Molo ney murine sarcoma virus (MSV), confluent monolayers of C3H cells in 1 ml wells of Tissue Culture Cluster plates were infected wiht 150 foci-forming units of MSV during 90 min, whereafter medium was replaced by 1 ml fresh culture medium containing different concentrations of test compound. After 6-7 days incubation at 37°C, transformation of the cell cultures was monitored microscopically.
as §2

in vitro [5] = assay type: cell-based; settings: mouse, c3h cells
HIV = experiment: Inhibition of HIV antigen expression in infected H9 or HUT-78 cells (indirect immunofluorescence, laser flow cytofluorography); assay type: cell-based; settings: Human immunodeficiency virus 1, HuT78; H9 and HUT-78 cells; data not shown; read-out: concentration achieving 50% inhibition of HIV-induced antigen expression
Excerpt: The inhibitory effects of the test compounds on HIV antigen expression in infected H9 or HUT-78 cells were determined at day 8 and 14, respectively after infection, by indirect immunofluorescence and laser flow cytofluorography using a polyclonal antibody as probe, as previously described (Pauwels, R. et al, (1987)).
To confirm our anti-HIV data obtained in the MT4 cell model, we also evaluated the 3′-fluorinated ddDAPR derivatives in two other human T4 lymphocyte cell lines (H9 and HUT-78) for their inhibitory effect on viral antigen expression (data not shown). In these experiments, FddDAPR achieves 50% inhibition of HIV-induced antigen expression at a concentration range of 0.05 - 1.0 µM. This concentration range is lower than that required to inhibit HIV-induced cytopathogenicity in MT4 cells.

B-lymphoblast Raji = experiment: Cytostatic effect against Raji cells; assay type: cell-based; settings: Homo sapiens, read-out: Inhibitory dose-50 Raji
Experimental: (§3) The cultivation of Raji, Molt/4F, CEM, H9, HUT-78 and MT4 cells has been described in Balzarini, J, et al, Biochem. Biophys. Res. Commun. 136:64-71 (1986b) and Pauwels, R. et al, J. Virol. Methods, 16:171-185 (1987).
(§4) The cytostatic effects of the compounds listed in Table 1 were examined against several human B-lymphoblast Raji, T-lymphoblast Molt/4F and T-lymphocyte CEM, H9 and MT4 cell lines (Table 2). […] In no case is the ID₅₀ of the compounds for tumor cell proliferation lower than 60 µM. FddGuo is slightly more cytostatic than FddDAPR (ID₅₀ : 190 to 228 µM, and 233 to >1000 µM, respectively). XylodDAPR and araDAPR are devoid of any anti-cellular activity, even when tested at a concentration as high as 1000 µM.

T-lymphoblast Molt/4F = experiment: Cytostatic effect against Molt/4F cells; assay type: cell-based; settings: Homo sapiens, read-out: Inhibitory dose-50 Molt/4F
Excerpt: The cultivation of Raji, Molt/4F, CEM, H9, HUT-78 and MT4 cells has been described in Balzarini, J, et al, Biochem. Biophys. Res. Commun.
The cytostatic effects of the compounds listed in Table 1 were examined against several human B-lymphoblast Raji, T-lymphoblast Molt/4F and T-lymphocyte CEM, H9 and MT4 cell lines (Table 2).

T-lymphocyte CEM [6] = experiment: Cytostatic effect against CEM cells; assay type: cell-based; settings: Homo sapiens, CCRF-CEM, read-out: Inhibitory dose-50 CEM
Experimental: as §3, §4

H9 = experiment: Cytostatic effect against H9 cells; assay type: cell-based; settings: Homo sapiens, read-out: Inhibitory dose-50 H9
Experimental: as §3, §4

MT4 [7] = experiment: Cytostatic effect against MT4 cells; assay type: cell-based; settings: Homo sapiens, read-out: Inhibitory dose-50 MT4
Experimental: as §3, §4

[8] = molecular target: T1, beef intestine adenosine deaminase (ADA); experiment: Substrate kinetics for deamination by adenosine deaminase; assay type: biochemical
Excerpt: All four ddDAPR analogues were examined for their susceptibility to deamination by beef intestine adenosine de aminase (ADA).

T-lymphocyte CEM [9] = experiment: Cytostatic effect against CEM cells; assay type: cell-based; settings: Homo sapiens, read-out: Inhibitory dose-50 CEM
MT4 [10] = experiment: Cytostatic effect against MT4 cells; assay type: cell-based; settings: Homo sapiens, read-out: Inhibitory dose-50 MT4; remark: listed apart in the source
[11] = tested on: human B-lymphoblast Raji, T-lymphoblast Molt/4F and T-lymphocyte CEM, H9 and MT4 cell lines; experiment: Cytostatic effects, summary over the human B- and T-cell lines; assay type: cell-based; settings: range over the cell lines, read-out: ID₅₀ for tumor cell proliferation
Experimental: as §3, §4

HIV (HTLV-IIIB) [12] = settings: earlier report, Balzarini et al (1987b); read-out: 50% effective dose (ED₅₀), inhibition of HIV-replication in MT4 cells; cited from earlier work
[13] = MT4, 120 h, MT4 cells, 5 days at 37°C, read-out: HIV-induced cytopathogenicity in MT4 cells ED₅₀
[14] = MT4, presence of 10 µM DCF (2′-deoxycoformycin), read-out: Effective dose-50 HIV-induced cytopathogenicity in MT4 cells
[15] = MT4, without DCF (Table 3), read-out: Effective dose-50 HIV-induced cytopathogenicity in MT4 cells
[16] = C3H cells, 6-7 days at 37°C, read-out: MSV-induced C3H cell transformation ED₅₀
[17] = presence of 10 µM DCF (2′-deoxycoformycin), read-out: Effective dose-50 MSV-induced C3H cell transformation
[18] = without DCF (Table 3), read-out: Effective dose-50 MSV-induced C3H cell transformation
[19] = presence of DCF (10 µM preincubation)
[20] = MT4, presence of DCF (10 µM preincubation)

| Structure (SMILES) | Vmax [1] | EC50 (HIV (HTLV-IIIB) [2]; [13]) | HIV-induced cytopathogenicity in MT4 cells S.I. (HIV (HTLV-IIIB) [2]) | CC50 at 120 h (in vitro [3]) | EC50 [4, 16] | MSV-induced C3H cell transformation S.I. [4] | CC50 (in vitro [5]) | IC50 (B-lymphoblast Raji) | IC50 (T-lymphoblast Molt/4F; Molt/4F) | IC50 (T-lymphocyte CEM [6]) | IC50 (H9) | IC50 (MT4 [7]) | Vmax [8] | further results |
| --- | --- | --- | --- | --- | --- | --- | --- | --- | --- | --- | --- | --- | --- | --- |
| Nc1ncnc2c1ncn2[C@@H]1O[C@H](CO)[C@@H](O)[C@H]1O [Ado, adenosine] | 287^a µmole/mg proten/min |  |  |  |  |  |  |  |  |  |  |  |  |  |
| Nc1nc(N)c2ncn([C@H]3C[C@H](F)[C@@H](CO)O3)c2n1 [FddDAPR, 3′-fluoro-2,6-diaminopurine 2′,3′-dideoxyriboside] |  | 4.5 µM | 80 | 360 µM | 28 µM | > 15 | > 400 µM | 753 µM | 425 µM | 233 µM | 377 µM | 337 µM | 31 µmole/mg proten/min | EC50 (HIV (HTLV-IIIB) [2]; [14]): 39 µM; EC50 (HIV (HTLV-IIIB) [2]; [15]): 4.5 µM; EC50 [4, 17]: 87 µM; EC50 [4, 18]: 31 µM; EC50 (HIV): 0.05 to 1 µM; IC50 (T-lymphoblast Molt/4F; [19]): 865 µM; IC50 (T-lymphoblast Molt/4F; without DCF (Table 4)): 353 µM; IC50 (T-lymphocyte CEM [9]; [19]): 739 µM; IC50 (T-lymphocyte CEM [9]; without DCF (Table 4)): 241 µM; IC50 (MT4 [10]; [20]): 520 µM; IC50 (MT4 [10]; MT4, without DCF (Table 4)): 469 µM |
| Nc1nc2c(ncn2[C@H]2C[C@H](F)[C@@H](CO)O2)c(=O)[nH]1 [FddGuo, 3′-fluoro-2′,3′-dideoxyguanosine] |  | 2.4 µM | 96 | 231 µM | 12 µM | > 23 | > 400 µM | 107 µM | 228 µM | 119 µM | 194 µM | 197 µM |  | IC50 [11]: 190 to 228 µM |
| Nc1nc(N)c2ncn([C@H]3C[C@@H](O)[C@@H](CO)O3)c2n1 [XylodDAPR] |  | > 125 µM |  | > 625 µM | > 400 µM |  | > 400 µM | > 1000 µM | > 1000 µM | > 1000 µM | > 1000 µM | > 1000 µM | 3.7 µmole/mg proten/min | anti-HIV activity (HIV (HTLV-IIIB) [2]): devoid of any anti-HIV activity |
| Nc1nc(N)c2ncn([C@@H]3O[C@H](CO)[C@@H](O)[C@@H]3O)c2n1 [araDAPR, 9-β-D-arabinofuranosyl 2,6-diaminopurine] |  | > 125 µM |  | > 625 µM | > 400 µM |  | > 400 µM | > 1000 µM | > 1000 µM | > 1000 µM | > 1000 µM | > 1000 µM | 5.9 µmole/mg proten/min | anti-HIV activity (HIV (HTLV-IIIB) [2]): devoid of any anti-HIV activity; Km [8]: 83 µM |
| Nc1ncnc2c1ncn2[C@H]1CC[C@@H](CO)O1 [ddAdo, 2′,3′-dideoxyadenosine] | 262^a µmole/mg proten/min |  |  |  |  |  |  |  |  |  |  |  |  |  |
| Nc1nc(N)c2ncn([C@H]3CC[C@@H](CO)O3)c2n1 [ddDAPR, 2,6-Diamino-9-(2,3-dideoxy-β-D-glycero-pentofuranosyl)purine] | 8.2^a µmole/mg proten/min | 3.8 µM | 106 | 404 µM | 19 µM | ≧ 11 | ≥ 200 µM | 324 µM |  | 125 µM | 466 µM | 644 µM |  | EC50 (HIV (HTLV-IIIB) [2]; [14]): 13 µM; EC50 (HIV (HTLV-IIIB) [2]; [15]): 3.8 µM; EC50 [4, 17]: 84 µM; EC50 [4, 18]: 23 µM; IC50 (T-lymphoblast Molt/4F; [19]): > 1000 µM; IC50 (T-lymphoblast Molt/4F; without DCF (Table 4)): 220 µM; Vmax relative to that observed for Ado [8]: 3%; EC50 (HIV (HTLV-IIIB) [12]): 2.5 to 3.6 µM; IC50 (T-lymphocyte CEM [9]; [19]): > 1000 µM; IC50 (T-lymphocyte CEM [9]; without DCF (Table 4)): 128 µM; IC50 (MT4 [10]; [20]): > 1000 µM; IC50 (MT4 [10]; MT4, without DCF (Table 4)): > 1000 µM; Km [1]: 29 µM |
| Nc1nc2c(ncn2[C@H]2CC[C@@H](CO)O2)c(=O)[nH]1 [ddGuo, 2′,3′-Dideoxyguanosine] |  | 7.6 µM | 64 | 486 µM | 72 µM | > 5.5 | > 400 µM | 903 µM | 380 µM | 142 µM | 531 µM | 942 µM |  |  |
